Measurements: the NIST ThermoML archive (doi:10.1016/j.fluid.2015.07.023)
± gives the expanded uncertainty stated by the source.

Key:
[1] = 298.15 K; 101.33 kPa; Liquid; mechanical oscillator
[2] = refractive index (Na D-line) (dimensionless); conditions: 298.15 K; 101.33 kPa; Liquid; Standard Abbe refractometry

In the case of `CC(C)OC(C)C` [diisopropyl ether], the mass density [1] is reported as 718.3 ± 0.3 kg/m3 and the refractive index [2] is reported as 1.3653 ± 0.0007.
Molecule `CO` [methanol] has a mass density [1] of 786.62 ± 0.21 kg/m3 and a refractive index [2] of 1.32666 ± 0.00068.
Work on `CC(C)O` [propan-2-ol] yielded a mass density [1] of 782.45 ± 0.21 kg/m3 and a refractive index [2] of 1.37522 ± 0.00068.
